According to PubChem BioAssay AID2060615 (Molecular Pharmacology Branch, DTP, NCI, 2025):

Tested on: 496974-208-R-J2-PDC complex spheroids, growth % test/control
Assay: Anticancer human tumor 496974-208-R-J2-PDC patient-derived pancreatic carcinoma cell line growth inhibition [CLK]
Details: for IC50: curve of first compound; for viability, T/C: stronger effect = lower value
Summary of the method: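 Multi-cell-type spheroids combined patient-derived tumor cells with HUVEC endothelial cells and human mesenchymal stem cells. Paired agents were dosed in half-log steps down from about clinical Cmax, or from 10 microM where Cmax was unknown.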

[1] = second compound 0.0316 µM, first compound 0.0316 µM
[2] = second compound 0.0316 µM, first compound 0.1 µM
[3] = second compound 0.0316 µM, first compound 0.316 µM
[4] = second compound 0.0316 µM, first compound 1 µM
[5] = second compound 0.1 µM, first compound 0.0316 µM
[6] = second compound 0.1 µM, first compound 0.1 µM
[7] = second compound 0.1 µM, first compound 0.316 µM
[8] = second compound 0.1 µM, first compound 1 µM
[9] = second compound 0.316 µM, first compound 0.0316 µM
[10] = second compound 0.316 µM, first compound 0.1 µM
[11] = second compound 0.316 µM, first compound 0.316 µM
[12] = second compound 0.316 µM, first compound 1 µM
[13] = second compound 1 µM, first compound 0.0316 µM
[14] = second compound 1 µM, first compound 0.1 µM
[15] = second compound 1 µM, first compound 0.316 µM
[16] = second compound 1 µM, first compound 1 µM
[17] = second compound 3.16 µM, first compound 0.0316 µM
[18] = second compound 3.16 µM, first compound 0.1 µM
[19] = second compound 3.16 µM, first compound 0.316 µM
[20] = second compound 3.16 µM, first compound 1 µM
[21] = second compound 10 µM, first compound 0.0316 µM
[22] = second compound 10 µM, first compound 0.1 µM
[23] = second compound 10 µM, first compound 0.316 µM
[24] = second compound 10 µM, first compound 1 µM
[25] = second compound 0.0316 µM, first compound 0.00316 µM
[26] = second compound 0.0316 µM, first compound 0.01 µM
[27] = second compound 0.1 µM, first compound 0.00316 µM
[28] = second compound 0.1 µM, first compound 0.01 µM
[29] = second compound 0.316 µM, first compound 0.00316 µM
[30] = second compound 0.316 µM, first compound 0.01 µM
[31] = second compound 1 µM, first compound 0.00316 µM
[32] = second compound 1 µM, first compound 0.01 µM
[33] = second compound 3.16 µM, first compound 0.00316 µM
[34] = second compound 3.16 µM, first compound 0.01 µM
[35] = second compound 10 µM, first compound 0.00316 µM
[36] = second compound 10 µM, first compound 0.01 µM
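Further: spheroids exposed to the drugs for 7 days before readout.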
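Wherever viability, T/C is given: 100% = DMSO vehicle control wells.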

`CC(Nc1ccc2c(c1)OCCn1cc(N3C(=O)OCC3C(F)F)nc1-2)C(N)=O` (stereo unspecified) + CNC(=O)c1ccc(Nc2nc(OC3CCCC3)c3c(-c4ccc5nc(C)oc5c4)c[nH]c3n2)c(OC)c1 showed an IC50 (second compound 0.0316 µM) of 0.15 µM, an IC50 (second compound 0.1 µM) of 0.184 µM and an IC50 (second compound 0.316 µM) of 0.0955 µM. The IC50 (second compound 1 µM) was 0.0687 µM, the IC50 (second compound 3.16 µM) was 0.0492 µM and the IC50 (second compound 10 µM) was < 0.0316 µM. The viability, T/C [1] was 87.2%, the viability, T/C [2] was 55.2% and the viability, T/C [3] was 38.5%. The viability, T/C [4] was 23.6%, the viability, T/C (second compound 0.0316 µM, first compound 3.16 µM) was 16.9% and the viability, T/C (second compound 0.0316 µM, first compound 10 µM) was 9.1%. The viability, T/C [5] was 70.5%, the viability, T/C [6] was 63.7% and the viability, T/C [7] was 37.5%. It also gave a viability, T/C [8] of 23.7%, a viability, T/C (second compound 0.1 µM, first compound 3.16 µM) of 15.5% and a viability, T/C (second compound 0.1 µM, first compound 10 µM) of 10.6%. The viability, T/C [9] was 76.6%, the viability, T/C [10] was 48.4% and the viability, T/C [11] was 30.1%. For the same compound, the viability, T/C [12] was 23.4%, the viability, T/C (second compound 0.316 µM, first compound 3.16 µM) was 15.5% and the viability, T/C (second compound 0.316 µM, first compound 10 µM) was 9.62%. For the same compound, the viability, T/C [13] was 58.8%, the viability, T/C [14] was 46.8% and the viability, T/C [15] was 32.3%. The viability, T/C [16] was 20.1%, the viability, T/C (second compound 1 µM, first compound 3.16 µM) was 18.4% and the viability, T/C (second compound 1 µM, first compound 10 µM) was 9.57%. The viability, T/C [17] was 56.9%, the viability, T/C [18] was 38.6% and the viability, T/C [19] was 28.3%. It also gave a viability, T/C [20] of 20%, a viability, T/C (second compound 3.16 µM, first compound 3.16 µM) of 17.6% and a viability, T/C (second compound 3.16 µM, first compound 10 µM) of 12.8%. For the same compound, the viability, T/C [21] was 47.2%, the viability, T/C [22] was 38.8% and the viability, T/C [23] was 24.6%. The viability, T/C [24] was 19%, the viability, T/C (second compound 10 µM, first compound 3.16 µM) was 15.6% and the viability, T/C (second compound 10 µM, first compound 10 µM) was 13.7%.

In the case of `CCN1CCN(Cc2ccc(Nc3ncc(F)c(-c4cc(F)c5nc(C)n(C(C)C)c5c4)n3)nc2)CC1` + CNC(=O)c1ccc(Nc2nc(OC3CCCC3)c3c(-c4ccc5nc(C)oc5c4)c[nH]c3n2)c(OC)c1, the IC50 (second compound 0.0316 µM) is reported as > 1 µM, the IC50 (second compound 0.1 µM) is reported as > 1 µM and the IC50 (second compound 0.316 µM) is reported as > 1 µM. For the same compound, the IC50 (second compound 1 µM) was > 1 µM, the IC50 (second compound 3.16 µM) was > 1 µM and the IC50 (second compound 10 µM) was > 1 µM. The viability, T/C [25] was 91.7%, the viability, T/C [26] was 90.2% and the viability, T/C [1] was 90.1%. It also gave a viability, T/C [2] of 94.2%, a viability, T/C [3] of 98% and a viability, T/C [4] of 98.4%. For the same compound, the viability, T/C [27] was 89.5%, the viability, T/C [28] was 88.9% and the viability, T/C [5] was 87.9%. For the same compound, the viability, T/C [6] was 84.2%, the viability, T/C [7] was 86.8% and the viability, T/C [8] was 97.5%. The viability, T/C [29] was 81.3%, the viability, T/C [30] was 81.9% and the viability, T/C [9] was 87.8%. For the same compound, the viability, T/C [10] was 81.4%, the viability, T/C [11] was 85.4% and the viability, T/C [12] was 94.8%. For the same compound, the viability, T/C [31] was 78.7%, the viability, T/C [32] was 81.2% and the viability, T/C [13] was 77.7%. It also gave a viability, T/C [14] of 76.3%, a viability, T/C [15] of 92.6% and a viability, T/C [16] of 81.8%. The viability, T/C [33] was 72.5%, the viability, T/C [34] was 71.9% and the viability, T/C [17] was 66.7%. The viability, T/C [18] was 77.6%, the viability, T/C [19] was 69.3% and the viability, T/C [20] was 73.7%. It also gave a viability, T/C [35] of 63%, a viability, T/C [36] of 61.7% and a viability, T/C [21] of 67.7%. It also gave a viability, T/C [22] of 69.3%, a viability, T/C [23] of 74.7% and a viability, T/C [24] of 75%.

Work on `COc1c(OCCCN2CCOCC2)ccc2c3n(c(=NC(=O)c4cnc(N)nc4)nc12)CCN3` + CNC(=O)c1ccc(Nc2nc(OC3CCCC3)c3c(-c4ccc5nc(C)oc5c4)c[nH]c3n2)c(OC)c1 yielded an IC50 (second compound 0.0316 µM) of 0.0174 µM, an IC50 (second compound 0.1 µM) of 0.0162 µM and an IC50 (second compound 0.316 µM) of 0.0111 µM. It also gave an IC50 (second compound 1 µM) of 0.00796 µM, an IC50 (second compound 3.16 µM) of 0.00474 µM and an IC50 (second compound 10 µM) of 0.00325 µM. For the same compound, the viability, T/C [25] was 88.2%, the viability, T/C [26] was 68.6% and the viability, T/C [1] was 29.4%. It also gave a viability, T/C [2] of 14.5%, a viability, T/C [3] of 9.14% and a viability, T/C [4] of 4.1%. For the same compound, the viability, T/C [27] was 76.9%, the viability, T/C [28] was 64.2% and the viability, T/C [5] was 30.2%. It also gave a viability, T/C [6] of 16.1%, a viability, T/C [7] of 12.5% and a viability, T/C [8] of 7.78%. It also gave a viability, T/C [29] of 70.3%, a viability, T/C [30] of 53.4% and a viability, T/C [9] of 24.8%. The viability, T/C [10] was 15.1%, the viability, T/C [11] was 11.2% and the viability, T/C [12] was 5.48%. It also gave a viability, T/C [31] of 61.2%, a viability, T/C [32] of 47.7% and a viability, T/C [13] of 27.5%. For the same compound, the viability, T/C [14] was 14%, the viability, T/C [15] was 12.3% and the viability, T/C [16] was 5.46%. It also gave a viability, T/C [33] of 54.4%, a viability, T/C [34] of 42% and a viability, T/C [17] of 26.1%. For the same compound, the viability, T/C [18] was 16.1%, the viability, T/C [19] was 8.87% and the viability, T/C [20] was 6.58%. The viability, T/C [35] was 50%, the viability, T/C [36] was 37.7% and the viability, T/C [21] was 21.9%. The viability, T/C [22] was 12.4%, the viability, T/C [23] was 9.58% and the viability, T/C [24] was 3.59%.
